# In PubChem BioAssay (NCI):
#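 Five compound concentrations were applied to cells in 96-well plates for 48 hours; endpoints were derived by simple linear interpolation of the resulting dose-response curve. TGI: total growth inhibition.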
# Columns and labels:
# Assay in all cases: NCI tumour cell line growth inhibition, 48 h
# 786-0 renal = system: 786-0 renal
# A549 NSCLC = system: A549 NSCLC
# ACHN renal = system: ACHN renal
# CCRF-CEM leukemia = system: CCRF-CEM leukemia
# COLO 205 colon = system: COLO 205 colon
# DU-145 prostate = system: DU-145 prostate
# EKVX NSCLC = system: EKVX NSCLC
# HCC-2998 colon = system: HCC-2998 colon
# HCT-116 colon = system: HCT-116 colon
# HCT-15 colon = system: HCT-15 colon
# HL-60(TB) leukemia = system: HL-60(TB) leukemia
# HOP-62 NSCLC = system: HOP-62 NSCLC
# HOP-92 NSCLC = system: HOP-92 NSCLC
# HS 578T breast = system: HS 578T breast
# HT29 colon = system: HT29 colon
# IGROV1 ovarian = system: IGROV1 ovarian
# K-562 leukemia = system: K-562 leukemia
# KM12 colon = system: KM12 colon
# LOX IMVI melanoma = system: LOX IMVI melanoma
# M14 melanoma = system: M14 melanoma
# MALME-3M melanoma = system: MALME-3M melanoma
# MCF7 breast = system: MCF7 breast
# MDA-MB-231 breast = system: MDA-MB-231 breast
# MDA-MB-435 = system: MDA-MB-435
# MDA-N = system: MDA-N
# MOLT-4 leukemia = system: MOLT-4 leukemia
# NCI-H226 lung = system: NCI-H226 lung
# NCI-H23 lung = system: NCI-H23 lung
# NCI-H522 lung = system: NCI-H522 lung
# NCI/ADR-RES ovarian = system: NCI/ADR-RES ovarian
# OVCAR-3 ovarian = system: OVCAR-3 ovarian
# OVCAR-4 ovarian = system: OVCAR-4 ovarian
# OVCAR-5 ovarian = system: OVCAR-5 ovarian
# OVCAR-8 ovarian = system: OVCAR-8 ovarian
# PC-3 prostate = system: PC-3 prostate
# RPMI-8226 leukemia = system: RPMI-8226 leukemia
# SF-268 CNS = system: SF-268 CNS
# SF-295 CNS = system: SF-295 CNS
# SK-MEL-2 melanoma = system: SK-MEL-2 melanoma
# SK-MEL-28 melanoma = system: SK-MEL-28 melanoma
# SK-MEL-5 melanoma = system: SK-MEL-5 melanoma
# SK-OV-3 ovarian = system: SK-OV-3 ovarian
# SN12C renal = system: SN12C renal
# SNB-19 CNS = system: SNB-19 CNS
# SNB-75 CNS = system: SNB-75 CNS
# SR leukemia = system: SR leukemia
# SW-620 colon = system: SW-620 colon
# TK-10 renal = system: TK-10 renal
# U251 CNS = system: U251 CNS
# UACC-62 melanoma = system: UACC-62 melanoma
# UO-31 renal = system: UO-31 renal
structure (smiles),measurement,setting,value
N#Cc1c(-c2ccccc2)cn(C(=O)c2ccccc2)c1N,TGI,786-0 renal,> 100 µM
same,TGI,A549 NSCLC,> 100 µM
same,TGI,ACHN renal,> 100 µM
same,TGI,CCRF-CEM leukemia,> 100 µM
same,TGI,COLO 205 colon,> 100 µM
same,TGI,DU-145 prostate,> 100 µM
same,TGI,EKVX NSCLC,> 100 µM
same,TGI,HCC-2998 colon,0.0659 µM
same,TGI,HCT-116 colon,> 100 µM
same,TGI,HCT-15 colon,> 100 µM
same,TGI,HL-60(TB) leukemia,> 100 µM
same,TGI,HOP-62 NSCLC,> 100 µM
same,TGI,HOP-92 NSCLC,> 100 µM
same,TGI,HS 578T breast,> 100 µM
same,TGI,HT29 colon,> 100 µM
same,TGI,IGROV1 ovarian,> 100 µM
same,TGI,K-562 leukemia,> 100 µM
same,TGI,KM12 colon,> 100 µM
same,TGI,LOX IMVI melanoma,> 100 µM
same,TGI,M14 melanoma,> 100 µM
same,TGI,MALME-3M melanoma,> 100 µM
same,TGI,MCF7 breast,> 100 µM
same,TGI,MDA-MB-231 breast,> 100 µM
same,TGI,MDA-MB-435,> 100 µM
same,TGI,MDA-N,> 100 µM
same,TGI,MOLT-4 leukemia,> 100 µM
same,TGI,NCI-H226 lung,> 100 µM
same,TGI,NCI-H23 lung,> 100 µM
same,TGI,NCI-H522 lung,> 100 µM
same,TGI,NCI/ADR-RES ovarian,> 100 µM
same,TGI,OVCAR-3 ovarian,> 100 µM
same,TGI,OVCAR-4 ovarian,> 100 µM
same,TGI,OVCAR-5 ovarian,> 100 µM
same,TGI,OVCAR-8 ovarian,> 100 µM
same,TGI,PC-3 prostate,> 100 µM
same,TGI,RPMI-8226 leukemia,> 100 µM
same,TGI,SF-268 CNS,> 100 µM
same,TGI,SF-295 CNS,> 100 µM
same,TGI,SK-MEL-2 melanoma,> 100 µM
same,TGI,SK-MEL-28 melanoma,> 100 µM
same,TGI,SK-MEL-5 melanoma,> 100 µM
same,TGI,SK-OV-3 ovarian,> 100 µM
same,TGI,SN12C renal,> 100 µM
same,TGI,SNB-19 CNS,> 100 µM
same,TGI,SNB-75 CNS,> 100 µM
same,TGI,SR leukemia,> 100 µM
same,TGI,SW-620 colon,> 100 µM
same,TGI,TK-10 renal,> 100 µM
same,TGI,U251 CNS,> 100 µM
same,TGI,UACC-62 melanoma,> 100 µM
same,TGI,UO-31 renal,> 100 µM
